# Test results published in patent publication US9681664B2, “Macrocyclic picolinamides as fungicides” (Dow Agrosciences LLC, priority 2012, dated 2017).
# Where two headings read alike, the source gives them in different places.
# What was measured:
# [1] = system: Mycosphaerella graminicola; Anamorph: Septoria tritici; assay: Leaf blotch of wheat (SEPTTR) disease control on wheat seedlings; format: in vivo; conditions: Zymoseptoria tritici; for pest or weed control at 121.5 g/ha: low volume application, 121.5 g/H
# Method: Technical grades of materials were dissolved in acetone, which were then mixed with nine volumes of water containing 110 ppm Triton X-100. The fungicide solutions were applied onto wheat seedlings using an automated booth sprayer to run-off. All sprayed plants were allowed to air dry prior to further handling. All fungicides were evaluated using the aforementioned method for their activity vs. all target diseases. Wheat leaf blotch and brown rust activity were also evaluated using track spray applications, in which case the fungicides were formulated as EC formulations, containing 0.1% Trycol 5941 in the spray solutions. Wheat plants (variety Yuma) were grown from seed in a greenhouse in 50% mineral soil/50% soil-less Metro mix until the first leaf was fully emerged, with 7-10 seedlings per pot. These plants were inoculated with an aqueous spore suspension of Septoria tritici either prior to or after fungicide treatments. After inoculation the plants were kept in 100% relative humidity (one day in a dark dew chamber followed by two to three days in a lighted dew chamber at 20° C.) to permit spores to germinate and infect the leaf. The plants were then transferred to a greenhouse set at 20° C. for disease to develop. When disease symptoms were fully expressed on the 1st leaves of untreated plants, infection levels were assessed on a scale of 0 to 100 percent disease severity. Percent disease control was calculated using the ratio of disease severity on treated plants relative to untreated plants.
# [2] = system: Puccinia triticina; Synonym: Puccinia recondite f. sp. tritici; assay: Wheat brown rust (PUCCRT) disease control on wheat seedlings; format: in vivo; conditions: Puccinia triticina; for pest or weed control at 121.5 g/ha: low volume application, 121.5 g/H
# Method: Technical grades of materials were dissolved in acetone, which were then mixed with nine volumes of water containing 110 ppm Triton X-100. The fungicide solutions were applied onto wheat seedlings using an automated booth sprayer to run-off. All sprayed plants were allowed to air dry prior to further handling. All fungicides were evaluated using the aforementioned method for their activity vs. all target diseases. Wheat leaf blotch and brown rust activity were also evaluated using track spray applications, in which case the fungicides were formulated as EC formulations, containing 0.1% Trycol 5941 in the spray solutions. Wheat plants (variety Yuma) were grown from seed in a greenhouse in 50% mineral soil/50% soil-less Metro mix until the first leaf was fully emerged, with 7-10 seedlings per pot. These plants were inoculated with an aqueous spore suspension of Puccinia triticina either prior to or after fungicide treatments. After inoculation the plants were kept in a dark dew room at 22° C. with 100% relative humidity overnight to permit spores to germinate and infect the leaf. The plants were then transferred to a greenhouse set at 24° C. for disease to develop. Fungicide formulation, application and disease assessment followed the procedures as described in the Example A.
# [3] = 24 h, High volume application, 1 Day Protectant, read-out: SEPTTR 1DP disease control
# [4] = 72 h, High volume application, 3 Day Curative, read-out: SEPTTR 3DC disease control
# [5] = 24 h, High volume application, 1 Day Protectant, read-out: PUCCRT 1DP disease control
# [6] = 72 h, High volume application, 3 Day Curative, read-out: PUCCRT 3DC disease control
# [7] = 24 h, Wheat Leaf Blotch, 1 Day Protectant, high volume application, read-out: Disease Control SEPTTR 1 DP 100 ppm
# [8] = 72 h, Wheat Leaf Blotch, 3 Day Curative, high volume application, read-out: Disease Control SEPTTR 3 DC 100 ppm
# [9] = 24 h, Wheat Brown Rust, 1 Day Protectant, high volume application, read-out: Disease Control PUCCRT 1 DP 100 ppm
# [10] = 72 h, Wheat Brown Rust, 3 Day Curative, high volume application, read-out: Disease Control PUCCRT 3 DC 100 ppm
# [11] = 24 h, Wheat Leaf Blotch, 1 Day Protectant, read-out: Disease Control SEPTTR 1 DP 121.5 g/H
# [12] = 72 h, Wheat Leaf Blotch, 3 Day Curative, read-out: Disease Control SEPTTR 3 DC 121.5 g/H
# [13] = 24 h, Wheat Brown Rust, 1 Day Protectant, read-out: Disease Control PUCCRT 1 DP 121.5 g/H
# [14] = 72 h, Wheat Brown Rust, 3 Day Curative, read-out: Disease Control PUCCRT 3 DC 121.5 g/H
Compound,"pest or weed control at 100 ppm [1, 3] [%]","pest or weed control at 100 ppm [1, 4] [%]","pest or weed control at 100 ppm [2, 5] [%]","pest or weed control at 100 ppm [2, 6] [%]","pest or weed control at 100 ppm [1, 7] [%]","pest or weed control at 100 ppm [1, 8] [%]","pest or weed control at 100 ppm [2, 9] [%]","pest or weed control at 100 ppm [2, 10] [%]","pest or weed control at 121.5 g/ha [1, 11] [%]","pest or weed control at 121.5 g/ha [1, 12] [%]","pest or weed control at 121.5 g/ha [2, 13] [%]","pest or weed control at 121.5 g/ha [2, 14] [%]"
COCCC(=O)Oc1c(OC)ccnc1C(=O)N[C@H]1CCC[C@H](Oc2ccccc2)[C@@H](OCCCC(F)(F)F)[C@H](C)OC1=O [F110],80 to 100,80 to 100,80 to 100,80 to 100,,,,,,,,
COc1ccnc(C(=O)N[C@H]2CCC[C@H](Oc3ccccc3)[C@@H](OCCCC(F)(F)F)[C@H](C)OC2=O)c1OCOC(C)=O [F107],80 to 100,80 to 100,80 to 100,80 to 100,,,,,,,,
COc1ccc(O[C@H]2CCC[C@H](NC(=O)c3nccc(OC)c3O)C(=O)O[C@@H](C)[C@@H]2Oc2ccc(F)cc2)cc1 [F54],80 to 100,0 to 80,80 to 100,80 to 100,,,,,,,,
CCCO[C@H]1[C@H](C)OC(=O)[C@@H](NC(=O)c2nccc(OC)c2OC(C)=O)CCC[C@@H]1Oc1ccccc1 [F102],80 to 100,80 to 100,80 to 100,80 to 100,,,,,,,,
COc1ccnc(C(=O)N[C@H]2CCC[C@H](Oc3ccc(C)cc3)[C@@H](Oc3ccc(C)cc3)[C@H](C)OC2=O)c1OCOC(C)=O [F115],80 to 100,0 to 80,80 to 100,0 to 80,,,,,,,,
COc1ccnc(C(=O)N[C@H]2CCC[C@H](OCC(C)C)[C@@H](Oc3ccc(C)cc3)[C@H](C)OC2=O)c1O [F82],< 0,0 to 80,0 to 80,0 to 80,,,,,,,,
C=C(C)CO[C@H]1CCC[C@H](NC(=O)c2nccc(OC)c2O)C(=O)O[C@@H](C)[C@@H]1OCC(C)C [F220],80 to 100,80 to 100,80 to 100,80 to 100,,,,,,,,
CCCCCO[C@H]1[C@H](C)OC(=O)[C@@H](NC(=O)c2nccc(OC)c2OCOC(C)=O)CCC[C@@H]1Oc1ccccc1 [F96],80 to 100,80 to 100,80 to 100,80 to 100,,,,,,,,
COc1ccc(O[C@H]2CCC[C@H](NC(=O)c3nccc(OC)c3O)C(=O)O[C@@H](C)[C@@H]2OCC(C)C)cc1 [F65],80 to 100,0 to 80,80 to 100,80 to 100,,,,,,,,
COc1ccnc(C(=O)N[C@H]2CCC[C@H](Oc3ccccc3)[C@@H](OC/C=C/C(F)(F)F)[C@H](C)OC2=O)c1O [F104],80 to 100,< 0,80 to 100,< 0,,,,,,,,
COc1ccnc(C(=O)N[C@H]2CCC[C@H](Oc3ccc(F)cc3)[C@@H](Oc3ccc(F)cc3)[C@H](C)OC2=O)c1OCOC(C)=O [F48],80 to 100,80 to 100,80 to 100,80 to 100,,,,,,,,
COc1ccc(O[C@H]2[C@H](C)OC(=O)[C@@H](NC(=O)c3nccc(OC)c3O)CCC[C@@H]2Oc2ccc(OC)cc2)cc1 [F64],0 to 80,0 to 80,0 to 80,< 0,,,,,,,,
COc1ccnc(C(=O)N[C@H]2CCC[C@H](Oc3ccccc3)[C@@H](OCCCc3ccccc3)[C@H](C)OC2=O)c1OCOC(=O)C(C)C [F112],80 to 100,80 to 100,80 to 100,80 to 100,,,,,,,,
COCCC(=O)Oc1c(OC)ccnc1C(=O)N[C@H]1CCC[C@H](OC2CCCC2)[C@@H](OCC(C)C)[C@H](C)OC1=O [F146],80 to 100,80 to 100,80 to 100,80 to 100,,,,,,,,
CCCO[C@H]1[C@H](C)OC(=O)[C@@H](NC(=O)c2nccc(OC)c2OCOC(C)=O)CCC[C@@H]1Oc1ccc(F)cc1 [F267],,,,,80 to 100,80 to 100,80 to 100,80 to 100,,,,
COc1ccnc(C(=O)N[C@H]2CCC[C@H](OC(=O)C3CCCC3)[C@@H](OC3CCCC3)[C@H](C)OC2=O)c1OCOC(=O)C(C)C [F157],80 to 100,80 to 100,80 to 100,80 to 100,,,,,,,,
COc1ccnc(C(=O)N[C@H]2CCC[C@H](OCC(C)C)[C@@H](OCCCc3ccccc3)[C@H](C)OC2=O)c1OC(C)=O [F214],80 to 100,80 to 100,80 to 100,80 to 100,,,,,,,,
C=C(C)c1ccc(O[C@H]2[C@H](C)OC(=O)[C@@H](NC(=O)c3nccc(OC)c3O)CCC[C@@H]2OCCC)cc1 [F288],,,,,80 to 100,80 to 100,80 to 100,80 to 100,,,,
COc1ccnc(C(=O)N[C@H]2CCC[C@H](Oc3ccccc3)[C@@H](OC(=O)C3CCCC3)[C@H](C)OC2=O)c1OCOC(=O)C(C)C [F234],,,,,80 to 100,80 to 100,80 to 100,80 to 100,80 to 100,< 0,80 to 100,< 0
COc1ccnc(C(=O)N[C@H]2CCC[C@H](Oc3ccccc3)[C@@H](OCCCC(F)(F)F)[C@H](C)OC2=O)c1OCOC(=O)C(C)C [F108],80 to 100,80 to 100,80 to 100,80 to 100,,,,,,,,
CCCO[C@H]1CCC[C@H](NC(=O)c2nccc(OC)c2OC(C)=O)C(=O)O[C@@H](C)[C@@H]1Oc1ccc(Br)cc1 [F285],,,,,80 to 100,80 to 100,80 to 100,0 to 80,80 to 100,80 to 100,80 to 100,80 to 100
COc1ccnc(C(=O)N[C@H]2CCC[C@H](Oc3ccccc3)[C@@H](OCCCC(F)(F)F)[C@H](C)OC2=O)c1O [F105],80 to 100,0 to 80,80 to 100,< 0,,,,,,,,
CCCO[C@H]1CCC[C@H](NC(=O)c2nccc(OC)c2OC(C)=O)C(=O)O[C@@H](C)[C@@H]1Oc1ccc(-c2ccccc2)cc1 [F287],,,,,80 to 100,80 to 100,80 to 100,80 to 100,80 to 100,80 to 100,80 to 100,80 to 100
COc1ccc(O[C@H]2CCC[C@H](NC(=O)c3nccc(OC)c3OCOC(=O)C(C)C)C(=O)O[C@@H](C)[C@@H]2OCC(C)C)cc1 [F69],80 to 100,80 to 100,80 to 100,80 to 100,,,,,,,,
COc1ccnc(C(=O)N[C@H]2CCC[C@H](OCCCC(F)(F)F)[C@@H](OCCCC(F)(F)F)[C@H](C)OC2=O)c1OCOC(C)=O [F87],80 to 100,80 to 100,80 to 100,80 to 100,,,,,,,,
